Article PMC5505983, “Naringenin Impairs Two-Pore Channel 2 Activity And Inhibits VEGF-Induced Angiogenesis” (Scientific Reports, 2017)

Legend:
[1] = biological target: T1, hTPC2 (Homo sapiens, UniProt Q8NHX9); experiment: whole-vacuole patch clamp, dose-response of current inhibition; assay type: cell-based; conditions: read-out: apparent affinity constant
T1 construct: gene TPCN2; full-length with C-terminal EGFP, plasmid pSAT-hTPC2-EGFP; transiently expressed in vacuoles of Arabidopsis thaliana tpc1-2 mutant mesophyll protoplasts; dimer

[2] = biological target: T2, hTPC1 (Homo sapiens, UniProt Q9ULQ1); experiment: whole-vacuole patch clamp, current activation; assay type: biochemical; conditions: activator; 90 nM cytosolic side; diC8 form; pH 7.5 cytosolic, pH 5.5 vacuolar
T2 construct: gene TPCN1; full-length with C-terminal EGFP, plasmid pSAT-hTPC1-EGFP; transiently expressed in vacuoles of Arabidopsis thaliana tpc1-2 mutant mesophyll protoplasts; dimer

T1 sequence (Q8NHX9 whole entry): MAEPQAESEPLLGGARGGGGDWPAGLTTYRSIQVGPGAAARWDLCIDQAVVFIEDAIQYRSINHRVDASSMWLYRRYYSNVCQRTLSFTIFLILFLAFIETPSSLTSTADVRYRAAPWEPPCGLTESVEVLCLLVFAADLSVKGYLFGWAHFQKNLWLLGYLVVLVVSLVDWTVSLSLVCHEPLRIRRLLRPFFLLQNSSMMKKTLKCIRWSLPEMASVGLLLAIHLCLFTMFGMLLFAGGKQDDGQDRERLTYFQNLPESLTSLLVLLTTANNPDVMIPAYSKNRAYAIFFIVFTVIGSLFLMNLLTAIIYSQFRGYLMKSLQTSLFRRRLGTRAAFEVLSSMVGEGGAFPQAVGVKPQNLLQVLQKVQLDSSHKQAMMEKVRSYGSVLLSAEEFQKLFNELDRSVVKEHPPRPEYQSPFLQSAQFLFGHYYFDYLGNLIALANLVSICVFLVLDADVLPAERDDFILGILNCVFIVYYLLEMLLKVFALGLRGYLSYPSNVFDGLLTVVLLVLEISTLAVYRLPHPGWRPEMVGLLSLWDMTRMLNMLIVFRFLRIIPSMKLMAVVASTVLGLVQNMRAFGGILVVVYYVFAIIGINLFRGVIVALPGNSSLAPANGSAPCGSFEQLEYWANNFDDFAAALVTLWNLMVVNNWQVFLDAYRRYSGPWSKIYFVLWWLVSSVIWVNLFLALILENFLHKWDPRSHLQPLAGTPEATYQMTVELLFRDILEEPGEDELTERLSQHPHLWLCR

IC50 [1]	SMILES	whole-vacuole patch clamp, current activation [2]
180 ± 20 µM	O=C1C[C@@H](c2ccc(O)cc2)Oc2cc(O)cc(O)c21 [Nar, 5,7-dihydroxy-2-(4-hydroxyphenyl)chroman-4-one]	–
–	CCCCCCCC(=O)OC[C@H](COP(=O)(O)O[C@@H]1[C@H](O)[C@H](OP(=O)(O)O)[C@@H](O)[C@H](OP(=O)(O)O)[C@H]1O)OC(=O)CCCCCCC [PI(3,5)P2]	very small in comparison to those elicited by the addition of the phosphoinositide
